Laboratory results: US9314485B2, “Use of PI3K M-TOR and AKT inhibitors to induce FOXP3 expression and generate regulatory T cells” (Medical Research Council, priority 2006, dated 2016)

Test system: naive CD62LhiCD4+CD25− LN T cells
Test: Foxp3 induction in newly activated naive CD4 T cells (intracellular staining)
Assay type: cell-based, mouse

TGFβ
percentage of cells expressing Foxp3 (added 18 hours after activation with TCR signal deprivation, read within 24-48 hours): 46.0±15.1% | % Foxp3+ cells, activation with anti-TCR only (no costimulation, average of two experiments): 7% | Foxp3 expression in control cultures, TCR signal deprived cultures subtracted (serum free AIM-V medium, without anti TGFβ and SB431542, 24-48 hours / 2 days): 22.3±7.0% | % Foxp3+ cells, activation with anti-TCR + anti-CD28 (with costimulation, average of two experiments): 46%
